Data as given in the supplement of paper PMC10307832.

What was measured:
Assay in all cases: relative viability (nuclei count vs DMSO), 5 days (fraction); higher = more cells survive
[1] = compound: C1=CC2=NC=CN=C2C=C1/C=C/3\C(=O)NC(=O)S3 + O=C(c1cc(Cc2n[nH]c(=O)c3ccccc23)ccc1F)N1CCN(C(=O)C2CC2)CC1 [Olaparib] (partner 8 µM)
Method in brief: (§1)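 One day after seeding in 1536-well plates, lung cancer cell lines were dosed by pin tool. Dosing was either single-drug or a fixed anchor-drug dose plus five library-drug doses (not always all listed) in √10 steps. After 5 days, nuclei were stained in one fix-and-stain step and counted on 4× images, and relative viability is the nuclei count of treated wells over that of vehicle wells, given as the median of duplicate plates.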

[2] = compound: CCN1CCN(c2ccc(Nc3cc(N(C)C(=O)Nc4c(Cl)c(OC)cc(OC)c4Cl)ncn3)cc2)CC1 [BGJ398] + CC(=O)Nc1cccc(-n2c(=O)n(C3CC3)c(=O)c3c(Nc4ccc(I)cc4F)n(C)c(=O)c(C)c32)c1 [Trametinib] (partner 0.02 µM)
Method in brief: as §1

[3] = compound: CCN1CCN(c2ccc(Nc3cc(N(C)C(=O)Nc4c(Cl)c(OC)cc(OC)c4Cl)ncn3)cc2)CC1 [BGJ398] + COc1cccc2cc(-c3nc([C@H]4CC[C@H](C(=O)O)CC4)n4ncnc(N)c34)[nH]c12 [OSI-027] (partner 0.5 µM)
Method in brief: as §1

[4] = compound: CCN1CCN(c2ccc(Nc3cc(N(C)C(=O)Nc4c(Cl)c(OC)cc(OC)c4Cl)ncn3)cc2)CC1 [BGJ398] + C[C@@H](Oc1cc(-c2cnn(C3CCNCC3)c2)cnc1N)c1c(Cl)ccc(F)c1Cl [Crizotinib] (partner 1 µM)
Method in brief: as §1

| Cell Line | relative viability ([1]; first compound 0.02 µM) | relative viability ([1]; first compound 0.06325 µM) | relative viability ([1]; first compound 0.2 µM) | relative viability ([1]; first compound 0.6325 µM) | relative viability ([1]; first compound 2 µM) | relative viability ([2]; first compound 0.01 µM) | relative viability ([2]; first compound 0.03162 µM) | relative viability ([2]; first compound 0.1 µM) | relative viability ([2]; first compound 0.3162 µM) | relative viability ([2]; first compound 1 µM) | relative viability ([3]; first compound 0.01 µM) | relative viability ([3]; first compound 0.03162 µM) | relative viability ([3]; first compound 0.1 µM) | relative viability ([3]; first compound 0.3162 µM) | relative viability ([3]; first compound 1 µM) | relative viability ([4]; first compound 0.01 µM) | relative viability ([4]; first compound 0.03162 µM) | relative viability ([4]; first compound 0.1 µM) | relative viability ([4]; first compound 0.3162 µM) | relative viability ([4]; first compound 1 µM) |
| --- | --- | --- | --- | --- | --- | --- | --- | --- | --- | --- | --- | --- | --- | --- | --- | --- | --- | --- | --- | --- |
| NCI-H1651 | 0.181 | 0.154 | 0.183 | 0.178 | 0.188 | 0.804 | 0.876 | 0.922 | 0.806 | 0.841 | 0.562 | 0.661 | 0.728 | 0.635 | 0.709 | 0.843 | 0.865 | 0.874 | 0.876 | 0.892 |
| NCI-H1755 | 0.774 | 0.86 | 0.886 | 0.872 | 0.908 | 0.723 | 0.751 | 0.725 | 0.638 | 0.554 | 0.598 | 0.852 | 0.749 | 0.779 | 0.698 | 0.907 | 0.888 | 0.884 | 0.868 | 0.84 |
| NCI-H661 | 0.682 | 0.733 | 0.733 | 0.746 | 0.715 | 0.479 | 0.599 | 0.642 | 0.516 | 0.63 | 0.618 | 0.723 | 0.766 | 0.752 | 0.742 | – | 0.94 | 0.926 | 0.983 | 0.916 |
| HARA | 0.899 | 0.54 | 0.687 | 1.06 | 0.615 | 0.778 | 0.41 | 0.43 | 0.604 | 0.437 | 0.422 | 0.32 | 0.506 | 0.358 | 0.439 | 0.953 | 1.06 | 1.04 | 1.02 | 1.07 |
| NCI-H596 | 0.712 | 0.719 | 0.677 | 0.726 | 0.729 | 0.719 | 0.631 | 0.773 | 0.709 | 0.62 | 0.761 | 0.693 | 0.655 | 0.648 | 0.621 | 0.935 | 0.843 | 0.883 | 0.944 | 0.794 |
| NCI-H23 | 0.236 | 0.326 | 0.313 | 0.35 | 0.255 | 0.348 | 0.438 | 0.441 | 0.377 | 0.322 | 0.588 | 0.726 | 0.692 | 0.518 | 0.569 | 0.531 | 0.539 | 0.486 | 0.58 | 0.566 |
| LCLC-97TM1 | 0.354 | 0.372 | 0.36 | 0.334 | 0.281 | 0.185 | 0.205 | 0.215 | 0.21 | 0.218 | 0.381 | 0.578 | 0.464 | 0.567 | 0.528 | 0.34 | 0.335 | 0.317 | 0.463 | 0.267 |
| EPLC-272H | 0.865 | 0.64 | 0.971 | 0.898 | 0.542 | 0.302 | 0.345 | 0.282 | 0.194 | 0.198 | 0.283 | 0.279 | 0.248 | 0.241 | 0.293 | 0.903 | 0.814 | 0.964 | 0.8 | 0.968 |
| NCI-H1915 | 0.25 | 0.248 | 0.281 | 0.249 | 0.258 | 0.282 | 0.31 | 0.29 | 0.221 | 0.17 | 0.59 | 0.614 | 0.62 | 0.582 | 0.687 | 0.847 | 0.869 | 0.998 | 0.936 | 0.886 |
| NCI-H2405 | 0.791 | 0.999 | 0.851 | 0.848 | 0.712 | 0.495 | 0.654 | 0.622 | 0.463 | 0.59 | 0.644 | 0.724 | 0.664 | 0.666 | 0.655 | 0.838 | 0.906 | 0.911 | 0.919 | 0.849 |
| NCI-H322M | 0.733 | 0.827 | 0.767 | 0.801 | 0.641 | 0.587 | 0.465 | 0.511 | 0.435 | 0.507 | 0.531 | 0.542 | 0.627 | 0.495 | 0.501 | 1.04 | 0.77 | 0.956 | 0.961 | 1.1 |
| NCI-H2170 | 0.55 | 0.594 | 0.609 | 0.577 | 0.563 | 0.941 | 0.937 | 1.02 | 0.91 | 0.866 | 0.742 | 0.606 | 0.706 | 0.619 | 0.707 | 1.09 | 1.22 | 1.29 | 1.25 | 1.31 |
| NCI-H358 | 0.559 | 0.663 | 0.65 | 0.667 | 0.419 | 0.137 | 0.127 | 0.134 | 0.126 | 0.148 | 0.611 | 0.793 | 0.81 | 0.798 | 1 | 0.631 | 0.779 | 0.533 | 0.574 | 0.722 |
| NCI-H838 | 0.731 | 0.872 | 0.795 | 0.71 | 0.636 | 0.41 | 0.537 | 0.51 | 0.403 | 0.382 | 0.297 | 0.357 | 0.376 | 0.338 | 0.294 | 0.804 | 0.837 | 0.781 | 0.782 | 0.652 |
| CAL-12T | 0.64 | 0.784 | 0.692 | 0.779 | 0.672 | 0.302 | 0.428 | 0.315 | 0.404 | 0.308 | 0.539 | 0.773 | 0.83 | 0.673 | 0.491 | 0.68 | 0.796 | 0.548 | 0.811 | 0.631 |
